Source: article PMC6366423 (Journal of Enzyme Inhibition and Medicinal Chemistry, 2019)
“And” between values parts separate entries of the source, which are not always exact repeats. Equal entries are not always repeated. Where two headings read alike, the source gives them in different places.

Columns and labels:
[1] = target: T1, eqBuChE (Equus caballus, UniProt P81908); test: biochemical; format: biochemical, equine; details: for IC50: mean ± SEM
T1 construct: eqBuChE (purified from equine serum); from tissue; host or cells: equine serum
Protocol: (§1) Inhibition of EeAChE and eqBuChE of hybrids 14a–p was carried out with EeAChE (type VI-S, purified from Electrophorus electricus) and eqBuChE (purified from equine serum) using Ellman’s protocol. Briefly, the reaction was performed in a final volume of 3 ml of a phosphate-buffered solution (0.1 M) at pH = 8.0 containing 5,5’-dithiobis-2-nitrobenzoic acid (DTNB) (2.625 μL, 0.35 mM), EeAChE (29 μl, 0.035 U/mL) or eqBuChE (60 μl, 0.05 U/mL), Bovine Albumin Serum phosphate-buffered solution (40 μL 1% w/v), and tested compound (3 µL). After 10 min of incubation, the substrate, AcTCh) iodide or butyrylthiocholine (BuTCh) iodide, was added, and the reaction was incubated for an additional 15 min.

[2] = target: T2, hAChE (Homo sapiens, UniProt P22303); test: biochemical; format: biochemical; details: for inhibition at 10 µM: read-out: hAChE enzymatic inhibition (%); for IC50: mean ± SEM
T2 construct: purchased Sigma Aldrich; host or cells: HEK 293

[3] = target: T3, hMAOB (Homo sapiens, UniProt P27338); test: MAO activity assay (kynuramine, HPLC-MS); format: biochemical; details: for inhibition at 10 µM: read-out: hMAOB enzymatic inhibition (%); for IC50: IC50 hMAOB, mean ± SEM
T3 sequence (P27338 1-520): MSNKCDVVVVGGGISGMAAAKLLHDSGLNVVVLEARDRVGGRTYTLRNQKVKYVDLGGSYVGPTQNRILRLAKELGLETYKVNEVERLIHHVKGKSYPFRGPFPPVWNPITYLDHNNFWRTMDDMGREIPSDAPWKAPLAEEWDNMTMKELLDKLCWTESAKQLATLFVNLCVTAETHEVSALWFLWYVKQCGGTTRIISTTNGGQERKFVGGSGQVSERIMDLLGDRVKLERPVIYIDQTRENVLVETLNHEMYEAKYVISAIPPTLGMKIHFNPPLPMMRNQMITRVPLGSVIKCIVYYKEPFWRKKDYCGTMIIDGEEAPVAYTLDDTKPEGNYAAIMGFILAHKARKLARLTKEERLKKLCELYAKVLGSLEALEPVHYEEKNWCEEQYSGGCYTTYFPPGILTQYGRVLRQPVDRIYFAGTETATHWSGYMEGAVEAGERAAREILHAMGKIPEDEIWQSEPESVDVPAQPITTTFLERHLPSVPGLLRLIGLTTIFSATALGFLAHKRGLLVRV

[4] = target: T4, hMAOA (Homo sapiens, UniProt P21397); test: MAO activity assay (kynuramine, HPLC-MS); format: biochemical; details: for inhibition at 10 µM: read-out: hMAOA enzymatic inhibition (%)
T4 sequence (P21397 1-527): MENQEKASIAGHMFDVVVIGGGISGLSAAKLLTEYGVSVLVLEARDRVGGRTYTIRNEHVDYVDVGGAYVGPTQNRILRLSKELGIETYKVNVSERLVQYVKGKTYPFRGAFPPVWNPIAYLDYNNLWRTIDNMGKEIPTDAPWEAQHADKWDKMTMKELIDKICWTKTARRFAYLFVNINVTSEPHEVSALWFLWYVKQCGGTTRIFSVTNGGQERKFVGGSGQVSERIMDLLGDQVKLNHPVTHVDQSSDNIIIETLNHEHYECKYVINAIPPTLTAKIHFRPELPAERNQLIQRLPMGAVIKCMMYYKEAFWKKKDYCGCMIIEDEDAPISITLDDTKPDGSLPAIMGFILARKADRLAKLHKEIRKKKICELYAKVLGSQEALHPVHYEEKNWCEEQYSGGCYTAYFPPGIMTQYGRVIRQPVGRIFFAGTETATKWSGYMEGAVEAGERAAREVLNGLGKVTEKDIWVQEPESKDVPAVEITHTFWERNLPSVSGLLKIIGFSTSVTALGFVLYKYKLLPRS

[5] = target: T5, EeAChE (Electrophorus electricus, UniProt O42275); test: biochemical; details: for inhibition at 10 µM: read-out: EeAChE enzymatic inhibition (%)
T5 construct: EeAChE (type VI-S, purified from Electrophorus electricus); tissue type VI-S
Protocol: as §1

[6] = target: T6, hBuChE (Homo sapiens, UniProt P06276); test: biochemical; format: biochemical; details: for IC50: mean ± SEM; for inhibition at 10 µM: read-out: hBuChE enzymatic inhibition (%)
T6 construct: hBuChE from human serum (Sigma Aldrich, Madrid, Spain); purchased Sigma Aldrich; host or cells: human serum

[7] = Oxygen radical absorbance capacity assay (ORAC-FL); details: Trolox equivalents (TE), mean (n = 3) ± SD
[8] = ORAC-FL, positive reference molecules; cited from earlier work

T2 sequence (P22303 32-614): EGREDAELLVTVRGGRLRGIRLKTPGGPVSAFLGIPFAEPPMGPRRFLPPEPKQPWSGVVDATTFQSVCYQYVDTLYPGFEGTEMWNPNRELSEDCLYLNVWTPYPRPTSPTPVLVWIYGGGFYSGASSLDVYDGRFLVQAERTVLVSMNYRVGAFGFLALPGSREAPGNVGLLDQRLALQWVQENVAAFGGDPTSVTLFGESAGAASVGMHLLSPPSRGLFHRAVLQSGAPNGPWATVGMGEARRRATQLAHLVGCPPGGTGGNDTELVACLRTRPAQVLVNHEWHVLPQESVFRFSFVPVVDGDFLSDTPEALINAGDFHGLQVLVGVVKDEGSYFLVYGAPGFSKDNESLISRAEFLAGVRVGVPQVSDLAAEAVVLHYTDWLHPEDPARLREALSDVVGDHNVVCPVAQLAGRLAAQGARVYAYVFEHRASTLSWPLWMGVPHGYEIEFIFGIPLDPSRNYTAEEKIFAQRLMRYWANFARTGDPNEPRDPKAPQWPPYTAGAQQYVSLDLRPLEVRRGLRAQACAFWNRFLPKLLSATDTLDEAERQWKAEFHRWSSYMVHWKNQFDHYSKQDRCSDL
T1 sequence (P81908 whole entry): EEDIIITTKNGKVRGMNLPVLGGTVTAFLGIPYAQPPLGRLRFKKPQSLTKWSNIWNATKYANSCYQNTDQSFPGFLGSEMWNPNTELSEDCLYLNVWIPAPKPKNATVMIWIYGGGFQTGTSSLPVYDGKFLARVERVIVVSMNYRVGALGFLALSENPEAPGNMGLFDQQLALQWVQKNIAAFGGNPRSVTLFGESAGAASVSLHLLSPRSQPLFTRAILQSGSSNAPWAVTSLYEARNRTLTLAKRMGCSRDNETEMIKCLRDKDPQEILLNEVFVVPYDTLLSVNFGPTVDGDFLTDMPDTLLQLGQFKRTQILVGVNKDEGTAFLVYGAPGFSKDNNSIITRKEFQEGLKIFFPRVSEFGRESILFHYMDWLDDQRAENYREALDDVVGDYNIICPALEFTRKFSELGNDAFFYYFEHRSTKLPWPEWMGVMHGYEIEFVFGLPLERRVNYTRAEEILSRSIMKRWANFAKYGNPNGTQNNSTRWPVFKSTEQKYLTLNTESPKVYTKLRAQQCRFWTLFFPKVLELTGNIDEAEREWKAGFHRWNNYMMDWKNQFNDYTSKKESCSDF
T6 sequence (P06276 29-602): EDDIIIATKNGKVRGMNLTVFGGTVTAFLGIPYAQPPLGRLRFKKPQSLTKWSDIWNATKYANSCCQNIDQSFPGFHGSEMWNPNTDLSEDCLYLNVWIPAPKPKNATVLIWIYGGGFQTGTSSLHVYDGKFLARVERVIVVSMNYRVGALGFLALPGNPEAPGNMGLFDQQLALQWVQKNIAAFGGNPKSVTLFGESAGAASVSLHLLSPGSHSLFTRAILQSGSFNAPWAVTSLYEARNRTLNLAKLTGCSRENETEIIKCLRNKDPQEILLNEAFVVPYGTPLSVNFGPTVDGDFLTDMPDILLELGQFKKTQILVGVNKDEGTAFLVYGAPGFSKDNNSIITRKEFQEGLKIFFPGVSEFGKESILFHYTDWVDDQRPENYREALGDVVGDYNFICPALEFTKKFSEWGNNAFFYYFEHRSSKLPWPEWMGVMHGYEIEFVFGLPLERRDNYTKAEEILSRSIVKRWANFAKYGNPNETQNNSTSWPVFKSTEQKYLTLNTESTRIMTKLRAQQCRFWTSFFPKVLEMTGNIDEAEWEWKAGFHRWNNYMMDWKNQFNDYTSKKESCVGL
T5 sequence (O42275 24-633): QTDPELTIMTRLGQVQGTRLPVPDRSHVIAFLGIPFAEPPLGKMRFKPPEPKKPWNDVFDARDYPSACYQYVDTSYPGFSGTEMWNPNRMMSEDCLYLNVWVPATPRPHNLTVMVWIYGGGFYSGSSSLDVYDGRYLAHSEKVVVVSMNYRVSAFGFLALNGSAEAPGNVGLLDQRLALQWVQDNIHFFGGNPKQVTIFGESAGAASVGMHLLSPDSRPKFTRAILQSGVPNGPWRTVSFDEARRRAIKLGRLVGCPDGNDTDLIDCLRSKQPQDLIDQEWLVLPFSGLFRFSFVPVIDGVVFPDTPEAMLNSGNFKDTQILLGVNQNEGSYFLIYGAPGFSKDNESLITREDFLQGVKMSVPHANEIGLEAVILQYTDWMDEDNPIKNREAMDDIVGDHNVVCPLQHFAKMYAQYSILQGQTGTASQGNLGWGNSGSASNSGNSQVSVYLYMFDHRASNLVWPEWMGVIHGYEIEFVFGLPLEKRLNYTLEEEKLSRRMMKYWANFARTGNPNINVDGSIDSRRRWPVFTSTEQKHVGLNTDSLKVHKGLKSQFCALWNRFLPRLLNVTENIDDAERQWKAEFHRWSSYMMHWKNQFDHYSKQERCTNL

| Structure (SMILES) | IC50 [1] | inhibition at 10 µM ([2]; at 10 μM) | inhibition at 10 µM [3] | IC50 [6] | ORAC (Eq Trolox) [7] | inhibition at 10 µM [4] | inhibition at 10 µM [6] | IC50 [2] | IC50 ([5]; mean ± SEM) | also measured |
| --- | --- | --- | --- | --- | --- | --- | --- | --- | --- | --- |
| O=C(CN(CC1CCN(Cc2ccccc2)CC1)C(=O)c1cc(=O)c2ccccc2o1)NCCc1c[nH]c2ccccc12 [14a] | 496 ± 7.07 nM | < 50% | < 40% | 1170 nM | 6.28 ± 0.12 Eq Trolox |  |  |  |  | IC50 [4]: 2000 nM; inhibition at 10 µM [5]: < 50% |
| COc1ccc2[nH]cc(CCNC(=O)CN(CC3CCN(Cc4ccccc4)CC3)C(=O)c3cc(=O)c4ccccc4o3)c2c1 [14b] | 636 ± 11.6 nM | < 50% | < 40% |  | 6.24 ± 0.05 Eq Trolox | < 40% | < 50% |  |  | inhibition at 10 µM [5]: < 50% |
| CC(C)Oc1ccc2[nH]cc(CCNC(=O)CN(CC3CCN(Cc4ccccc4)CC3)C(=O)c3cc(=O)c4ccccc4o3)c2c1 [14c] | 246 ± 9.91 nM | < 50% | < 40% |  | 6.11 ± 0.07 Eq Trolox | < 40% | < 50% |  |  | inhibition at 10 µM [5]: < 50% |
| CCCOc1ccc2[nH]cc(CCNC(=O)CN(CC3CCN(Cc4ccccc4)CC3)C(=O)c3cc(=O)c4ccccc4o3)c2c1 [14d] | 46.9 ± 3.41 nM | < 50% |  |  | 6.76 ± 0.09 Eq Trolox | < 40% | < 50% |  |  | inhibition at 10 µM [5]: < 50% |
| O=C(CN(CCC1CCN(Cc2ccccc2)CC1)C(=O)c1cc(=O)c2ccccc2o1)NCCc1c[nH]c2ccccc12 [14e] | 29.6 ± 2.38 nM |  | < 40% | 33.3 ± 0.55 nM | 6.52 ± 0.37 Eq Trolox | < 40% |  | 2620 ± 530 nM | 1430 ± 50 nM |  |
| COc1ccc2[nH]cc(CCNC(=O)CN(CCC3CCN(Cc4ccccc4)CC3)C(=O)c3cc(=O)c4ccccc4o3)c2c1 [14f] | 26 ± 2.37 nM |  |  | 271.8 ± 1.75 nM | 6.13 ± 0.09 Eq Trolox | < 40% |  | 360 ± 160 nM |  | hAChE, fold less active than Donepezil [2]: 15 fold; IC50 [3]: 80.6 ± 13.9 µM |
| CC(C)Oc1ccc2[nH]cc(CCNC(=O)CN(CCC3CCN(Cc4ccccc4)CC3)C(=O)c3cc(=O)c4ccccc4o3)c2c1 [14g] | 6.29 ± 0.73 nM |  | < 40% | 25 ± 0.2 nM | 5.05 ± 0.15 Eq Trolox | < 40% |  | 2000 ± 70 nM | 1050 ± 60 nM | eqBuChE potency, fold more potent than Donepezil [1]: 133 fold |
| CCCOc1ccc2[nH]cc(CCNC(=O)CN(CCC3CCN(Cc4ccccc4)CC3)C(=O)c3cc(=O)c4ccccc4o3)c2c1 [14h] | 6.76 ± 0.49 nM |  | < 40% | 63.9 ± 2.55 nM | 6.07 ± 0.02 Eq Trolox | < 40% |  | 2040 ± 660 nM | 850 ± 20 nM | eqBuChE potency, fold more potent than Donepezil [1]: 133 fold |
| O=C(CN(CCCC1CCN(Cc2ccccc2)CC1)C(=O)c1cc(=O)c2ccccc2o1)NCCc1c[nH]c2ccccc12 [14i] | 50.1 ± 5.19 nM | < 50% | < 40% |  | 6.92 Eq Trolox | < 40% | < 50% |  | 260 ± 10 nM | ORAC (Eq Trolox) ([7]; listed as [14]i): 6.92 ± 0.32 Eq Trolox |
| COc1ccc2[nH]cc(CCNC(=O)CN(CCCC3CCN(Cc4ccccc4)CC3)C(=O)c3cc(=O)c4ccccc4o3)c2c1 [14j] | 37.1 ± 0.46 nM | < 50% | < 40% |  | 3.31 ± 0.10 Eq Trolox | < 40% | < 50% |  | 270 nM |  |
| CC(C)Oc1ccc2[nH]cc(CCNC(=O)CN(CCCC3CCN(Cc4ccccc4)CC3)C(=O)c3cc(=O)c4ccccc4o3)c2c1 [14k] | 18.21 ± 0.18 nM |  |  | 34.9 ± 0.85 nM | 2.27 Eq Trolox |  |  |  | 360 ± 10 nM | hAChE enzymatic inhibition (%) ([2]; at 10 μM): – ^b; IC50 [3]: 15.2 µM; IC50 [4]: 2990 ± 160 nM; ORAC (Eq Trolox) ([7]; listed as [14]k): 2.27 ± 0.37 Eq Trolox |
| CCCOc1ccc2[nH]cc(CCNC(=O)CN(CCCC3CCN(Cc4ccccc4)CC3)C(=O)c3cc(=O)c4ccccc4o3)c2c1 [14l] | 9.03 ± 0.18 nM | < 50% | < 40% |  | 2.44 ± 0.16 Eq Trolox | < 40% | < 50% |  | 380 ± 10 nM |  |
| O=C(CN(CCCCC1CCN(Cc2ccccc2)CC1)C(=O)c1cc(=O)c2ccccc2o1)NCCc1c[nH]c2ccccc12 [14m] | 355 ± 8.41 nM | < 50% | < 40% |  | 2.97 ± 0.16 Eq Trolox | < 40% | < 50% |  | 60 nM | IC50 ([5]; values given in nM): 58.2 nM |
| COc1ccc2[nH]cc(CCNC(=O)CN(CCCCC3CCN(Cc4ccccc4)CC3)C(=O)c3cc(=O)c4ccccc4o3)c2c1 [14n, N-(4–(1-benzylpiperidin-4-yl)butyl)-N-(2-((2–(5-methoxy-1H-indol-3-yl)ethyl)amino)-2-oxoethyl)-4-oxo-4H-chromene-2-carboxamide] | 43.4 ± 1.37 nM |  |  | 11.9 ± 0.05 nM | 3.04 Eq Trolox |  |  | 1730 ± 340 nM | 480 ± 10 nM | IC50 [3]: 21.3 µM; IC50 [4]: 2780 ± 120 nM; hBuChE, fold less active than Tacrine [6]: 2 fold; ORAC (Eq Trolox) ([7]; listed as [14]n): 3.04 ± 0.36 Eq Trolox |
| CC(C)Oc1ccc2[nH]cc(CCNC(=O)CN(CCCCC3CCN(Cc4ccccc4)CC3)C(=O)c3cc(=O)c4ccccc4o3)c2c1 [14o] | 46.6 ± 2.76 nM | < 50% | < 40% |  | 2.63 ± 0.12 Eq Trolox | < 40% | < 50% |  | 90 nM | IC50 ([5]; values given in nM): 88.5 nM |
| CCCOc1ccc2[nH]cc(CCNC(=O)CN(CCCCC3CCN(Cc4ccccc4)CC3)C(=O)c3cc(=O)c4ccccc4o3)c2c1 [14p] | 61.3 ± 5.48 nM |  | < 40% | 80.4 ± 12.4 nM | 2.67 ± 0.15 Eq Trolox |  |  | 2100 ± 510 nM | 80 nM | IC50 [4]: 1390 ± 110 nM |
| COc1cc(/C=C/C(=O)O)ccc1O [Ferulic acid] |  |  |  |  |  |  |  |  |  | ORAC (Eq Trolox) [8]: 3.74 Eq Trolox and 3.74 ± 0.22 Eq Trolox |
| Nc1c2c(nc3ccccc13)CCCC2 [Tacrine, reference compound] |  |  |  |  | 0.2 ± 0.1 Eq Trolox |  |  |  |  |  |
